These results are taken from patent US12398154B2, “Azaquinazoline pan-KRas inhibitors” (Mirati Therapeutics, Inc., priority 2020, dated 2025).

One assay has as its target KRas G12V (Homo sapiens, UniProt P01116, G12V). The experiment in a line: biochemical.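 Also: KRas binding measured by TR-FRET displacement at room temperature, IC50 fitted from percent of control values.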
The test system of assay [1] is phospho-ERK in NCI-H727 (G12V) cells. The experiment in a line: Inhibition of KRas-mediated phosphorylation of ERK (in-cell western). Particulars: Homo sapiens, NCI-H727, 3 h, 3 hours compound, phospho-ERK normalized to GAPDH. In kind it is cell-based. The method, boiled down:
(§1)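 IC50 came from 4-parameter dose-response fits of phospho-ERK (Thr202/Tyr204)/GAPDH signal, expressed as % DMSO control. Compounds were applied for 3 h at 0.5% DMSO before fixation, methanol permeabilization and antibody imaging by in-cell western.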

For assay [2], the system named is phospho-ERK in HCT116 (G13D) cells. Described as above. Format: cell-based. The settings on record: Homo sapiens, HCT-116, 3 hours compound, phospho-ERK normalized to GAPDH. The method, boiled down: as §1
In assay [3] the test system is phospho-ERK in PSN-1 (G12R) cells. Described as above. Format: cell-based. The settings on record: Homo sapiens, PSN1, 3 hours compound, phospho-ERK normalized to GAPDH. The method, boiled down:
as §1

Assay [4] has as its system phospho-ERK in NCI-H358 (G12C) cells. Described as above. In kind it is cell-based. The settings on record: Homo sapiens, 3 hours compound, phospho-ERK normalized to GAPDH. The method, boiled down: as §1
In assay [5] the test system is phospho-ERK in AsPC-1 (G12D) cells. The assay is described as above. Format: cell-based. The settings on record: Homo sapiens, ASPC1, 3 h, 3 hours compound, phospho-ERK normalized to GAPDH. The method, boiled down: as §1
Assay [6] has as its system phospho-ERK in MKN1 (WTdep) cells. The description is as above. Format: cell-based. Particulars: Homo sapiens, MKN-1, 3 hours compound, phospho-ERK normalized to GAPDH. The method, boiled down: as §1
Assay [7] relates to phospho-ERK in NCI-H460 (Q61H) cells. The assay is described as above. In kind it is cell-based. The settings on record: Homo sapiens, NCI-H460, 3 h, 3 hours compound, phospho-ERK normalized to GAPDH. The method, boiled down: as §1
For assay [8], the system named is phospho-ERK in A549 (G12S) cells. The assay is described as above. In kind it is cell-based. Particulars: Homo sapiens, 3 hours compound, phospho-ERK normalized to GAPDH. The method, boiled down:
as §1

Another assay deals with KRas G12R (Homo sapiens, UniProt P01116, G12R). The experiment in a line: biochemical.
KRas G12R, sequence (P01116 1-169 isoform P01116-2 G12R): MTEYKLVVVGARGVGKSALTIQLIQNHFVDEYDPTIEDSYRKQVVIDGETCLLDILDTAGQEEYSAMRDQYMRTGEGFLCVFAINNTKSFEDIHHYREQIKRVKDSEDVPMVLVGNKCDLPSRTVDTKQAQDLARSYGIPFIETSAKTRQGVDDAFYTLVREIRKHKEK
Another assay concerns the target KRas G12D (Homo sapiens, UniProt P01116, G12D). Briefly: biochemical.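 Also: TR-FRET displacement binding assay on KRas, read after a one-hour incubation at room temperature, IC50 fitted from percent-of-control values.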

The IC50 is the concentration that inhibits the measured activity by half. A higher IC50 goes with weaker potency.

KRas G12V, sequence (P01116 1-169 isoform P01116-2 G12V): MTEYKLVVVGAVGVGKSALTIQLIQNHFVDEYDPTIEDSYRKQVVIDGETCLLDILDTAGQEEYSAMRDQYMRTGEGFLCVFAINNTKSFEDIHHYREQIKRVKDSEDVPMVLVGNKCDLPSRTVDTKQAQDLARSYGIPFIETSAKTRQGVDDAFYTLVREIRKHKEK
KRas G12D, sequence (P01116 1-169 isoform P01116-2 G12D): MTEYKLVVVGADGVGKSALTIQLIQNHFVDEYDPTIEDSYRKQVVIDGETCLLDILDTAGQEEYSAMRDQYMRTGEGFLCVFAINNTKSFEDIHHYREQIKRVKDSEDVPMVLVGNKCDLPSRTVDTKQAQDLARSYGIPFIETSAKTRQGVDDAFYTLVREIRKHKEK

Regarding `Cc1n[nH]c(C2CCCN(c3nc(OCC45CCCN4CCC5)nc4c(F)c(-c5cc(O)cc6ccc(F)c(F)c56)ncc34)C2)n1` (stereo not drawn) [Example 138, 5,6-difluoro-4-(8-fluoro-2-((hexahydro-1H-pyrrolizin-7a-yl)methoxy)-4-(3-(3-methyl-1H-1,2,4-triazol-5-yl)piperidin-1-yl)pyrido[4,3-d]pyrimidin-7-yl)naphthalen-2-ol], the IC50 against KRas G12V was 5 nM; in assay [1], at least 10000 nM; in [2] it was at least 10000 nM; in [3], at least 10000 nM; in assay [4], at least 10000 nM; in [5] it was at least 10000 nM. Further, the 50% inhibitory concentration (IC50) in assay [6] is at least 10000 nM; in [7], at least 10000 nM; in assay [8], at least 10000 nM; against KRas G12R it was 5 nM; on KRas G12D it was 12 nM.

In the case of `CCc1c(F)ccc2cc(O)cc(-c3ncc4c(NCc5ccc6[nH]cnc6c5)nc(OC[C@@]56CCCN5C[C@H](F)C6)nc4c3F)c12` [Example 139, 4-(4-(((1H-benzo[d]imidazol-5-yl)methyl)amino)-8-fluoro-2-(((2R,7aS)-2-fluorohexahydro-1H-pyrrolizin-7a-yl)methoxy)pyrido[4,3-d]pyrimidin-7-yl)-5-ethyl-6-fluoronaphthalen-2-ol], the IC50 on KRas G12V is at most 2 nM; in [1] it was at least 10000 nM; in [2], at least 10000 nM; in assay [3] it was at least 10000 nM; in [4], 115 nM; in [5], at least 10000 nM. The half-maximal inhibitory concentration (IC50) in assay [6] was 307 nM; in assay [7], 7510 nM; in assay [8], at least 10000 nM; on KRas G12R it was at most 2 nM; at KRas G12D it was 8 nM.

As for `CCc1c(F)ccc2cc(O)cc(-c3ncc4c(NCc5ncc6cc[nH]c6n5)nc(OC[C@@]56CCCN5C[C@H](F)C6)nc4c3F)c12` [Example 142, 4-(4-(((7H-pyrrolo[2,3-d]pyrimidin-2-yl)methyl)amino)-8-fluoro-2-(((2R,7aS)-2-fluorohexahydro-1H-pyrrolizin-7a-yl)methoxy)pyrido[4,3-d]pyrimidin-7-yl)-5-ethyl-6-fluoronaphthalen-2-ol], the IC50 at KRas G12V was at most 2 nM; in assay [1], at least 10000 nM; in [2] it was 6960 nM; in [3], at least 10000 nM; in assay [4], 78 nM; in assay [5], 2870 nM. The IC50 in [6] was 45 nM; in assay [7] it was 212 nM; in assay [8] it was at least 10000 nM; at KRas G12R it was at most 2 nM; at KRas G12D, 14 nM.

In the case of `CCc1c(F)ccc2cc(O)cc(-c3ncc4c(NCc5ccc(=O)[nH]c5)nc(OC[C@@]56CCCN5C[C@H](F)C6)nc4c3F)c12` [Example 143], the IC50 at KRas G12V is at most 2 nM; in assay [1] it was at least 10000 nM; in assay [2] it was at least 10000 nM; in [3] it was at least 10000 nM; in assay [4] it was 527 nM; in [5] it was at least 10000 nM. Besides, the IC50 is 300 nM in assay [6]; at least 10000 nM in [7]; at least 10000 nM in assay [8]; at most 2 nM at KRas G12R; 4 nM against KRas G12D.

For `CCc1c(F)ccc2cc(O)cc(-c3ncc4c(N5CCCC(c6ncn[nH]6)C5)nc(OC[C@@]56CCCN5C[C@H](F)C6)nc4c3F)c12` (stereo partly drawn) [Example 145, 4-(4-(3-(1H-1,2,4-triazol-5-yl)piperidin-1-yl)-8-fluoro-2-(((2R,7aS)-2-fluorohexahydro-1H-pyrrolizin-7a-yl)methoxy)pyrido[4,3-d]pyrimidin-7-yl)-5-ethyl-6-fluoronaphthalen-2-ol], the IC50 on KRas G12V was 6 nM; in assay [1] it was at least 10000 nM; in assay [2], at least 10000 nM; in [3], at least 10000 nM; in assay [4], 379 nM; in [5] it was at least 10000 nM. In addition, the IC50 in assay [6] was 258 nM; in assay [7], 847 nM; in assay [8], at least 10000 nM; at KRas G12R, 3 nM; at KRas G12D, 9 nM.

In the case of `CCc1c(F)ccc2cc(O)cc(-c3ncc4c(N5CCCC(C(N)=O)C5)nc(OC[C@@]56CCCN5C[C@H](F)C6)nc4c3F)c12` (stereo partly drawn) [Example 147], the concentration for half-maximal inhibition (IC50) against KRas G12V is 3 nM; in [1] it was at least 10000 nM; in assay [2], at least 10000 nM; in [3], at least 10000 nM; in [4], 79 nM; in assay [5] it was at least 10000 nM. The IC50 in assay [6] was 65 nM; in [7], 383 nM; in assay [8], 1950 nM; on KRas G12R it was 3 nM; at KRas G12D it was 4 nM.

Turning to `CCc1c(F)ccc2cc(O)cc(-c3ncc4c(Nc5ccon5)nc(OC[C@@]56CCCN5C[C@H](F)C6)nc4c3F)c12` [Example 152, 5-ethyl-6-fluoro-4-(8-fluoro-2-(((2R,7aS)-2-fluorohexahydro-1H-pyrrolizin-7a-yl)methoxy)-4-(isoxazol-3-ylamino)pyrido[4,3-d]pyrimidin-7-yl)naphthalen-2-ol], the IC50 against KRas G12V was 8 nM; in assay [1] it was at least 10000 nM; in assay [2] it was at least 10000 nM; in assay [3], at least 10000 nM; in [4], at least 10000 nM; in assay [5] it was at least 10000 nM. Moreover, the IC50 in assay [6] was 6290 nM; in [7], at least 10000 nM; in [8], at least 10000 nM; at KRas G12R, 10 nM; at KRas G12D it was 175 nM.

`CCc1c(F)ccc2cc(O)cc(-c3ncc4c(N5CCN(c6ncccc6C#N)CC5)nc(OC[C@@]56CCCN5C[C@H](F)C6)nc4c3F)c12` [Example 155]: the IC50 at KRas G12V is 4 nM; in [1], 2670 nM; in [2], at least 10000 nM; in assay [3] it was at least 10000 nM; in assay [4] it was 329 nM; in assay [5] it was 1720 nM. Moreover, the IC50 is 196 nM in assay [6]; 399 nM in assay [7]; at least 10000 nM in [8]; 3 nM against KRas G12R; 118 nM against KRas G12D.

`CCc1c(F)ccc2cc(O)cc(-c3ncc4c(NCCc5c[nH]c6ncccc56)nc(OC[C@@]56CCCN5C[C@H](F)C6)nc4c3F)c12` [Example 157, 4-(4-((2-(1H-pyrrolo[2,3-b]pyridin-3-yl)ethyl)amino)-8-fluoro-2-(((2R,7aS)-2-fluorohexahydro-1H-pyrrolizin-7a-yl)methoxy)pyrido[4,3-d]pyrimidin-7-yl)-5-ethyl-6-fluoronaphthalen-2-ol]: the IC50 is at most 2 nM against KRas G12V; 4720 nM in assay [1]; 893 nM in [2]; at least 10000 nM in assay [3]; 31 nM in [4]; 751 nM in assay [5]. Moreover, the IC50 was 31 nM in [6]; 585 nM in assay [7]; 448 nM in [8]; at most 2 nM against KRas G12R; 12 nM against KRas G12D.
